Reference: patent US6960559B1, “Neurite growth regulatory factors” (University of Zurich, priority 1988, dated 2005)
pIC50: −log10 of the molar value. Where “and” joins values, the source holds several entries; their conditions need not be identical. Equal entries are not always repeated. Where two headings read alike, the source gives them in different places. Each block holds one compound with its values, some of them ahead of it. Where a SMILES comes first, the peptide text is derived from it. The star is where a group is joined. Cbz = O=C(OCc1ccccc1)*

How the values were obtained:
[1] = test system: C6 plasma membrane associated metalloendoprotease; test: Enzyme assay: cbz-FAF[125I]Y-NH2 degradation by C6 plasma membranes with protease blockers; format: biochemical, rat
Description: For most experiments, 70-80% confluent cell layers (1 cm^2 wells, 100 μl MEMα) or 2-5 μg C6 plasma membrane (100 μl MEMα) were used. […] If indicated, cell layers or plasma membrane suspensions were preincubated for 30 min with protease blockers or peptides. NEM or iodacetamide incubations of plasma membranes were performed at pH 8.5. The incubation was stopped by loading a 10 μl aliquot of the incubation medium on a thin layer chromatography plate (10 cm height, Kieselgel 60 F254, MERCK, Germany) and air dried. […] Plates were then air dried and exposed on Kodak X-OMAT films (NY, USA) with an intensifying screen. To identify the degradation products on thin-layer chromatography, we run reference peptides under the same conditions.
For the quantification of the activity, the reaction was stopped by addition of an equal volume of chloroform. […] Activity is expressed as % radioactivity contained in the aqueous phase. 100% is the sum of the radioactivity of both phases.

[2] = test system: C6 glioblastoma cells; test: cells; format: cell-based, rat; settings: for pIC50: 2 h
Description: Rat C6 glioblastoma cells (Benda et al., 1968, Science 161:370-371) were cultured in Dulbecco's modified Eagle's medium (DMEM) supplemented with 10% fetal calf serum (FCS), usually to maximally 70-80% confluency (Paganetti et al., 1988, J. Cell Biol. 107:2281-2291). All cell culture media were routinely supplemented with penicillin and streptomycin. Cells were harvested by a short trypsin treatment (0.1% in Ca^2+/Mg^2+-free [CMF] PBS/EDTA solution for 90 seconds) followed by addition of DMEM/10% FCS and centrifugation (600×g, 6 min). The cell pellet was rinsed with 5 ml DMEM/10% FCS and centrifuged. For cell spreading assays, cells were resuspended at 10^6/ml in defined serum-free medium (MEMα) supplemented with 0.2 μg/ml insulin, 0.5 μg/ml transferrin and 0.12 μg/ml bovine serum albumin (BSA). Protease blockers or peptides were added directly to the cell suspension from 10×solutions 10 min before plating.
Spinal cord myelin from young adult Lewis rats was purified on a discontinuous sucrose gradient (Colman et al., 1982, J. Cell Biol. 95:598-608; Schwab and Caroni, 1988, J. Neurosci. 8:2381-2393) and stored in 100 mM sucrose, 25 mM TRIS/HCl pH 7.4 at −80° C. up to 6 months. The myelin suspension ([…]) was incubated for 30 min on poly-D-lysine-coated wells (PLYS-wells). Unbound myelin membranes were removed by rinsing twice with CMF-Hank's and once with MEMα. Myelin-coated wells were used immediately for the spreading assay by adding 9'000 C6 cells per cm^2. Experiments were scored as described (Paganetti et al., 1988, J. Cell Biol. 107:2281-2291).

[3] = test system: C6 cells; test: C6 cell spreading on CNS myelin or PLYS with protease inhibitors; format: cell-based, rat; settings: for Inhibition on CNS (%): C6 cells, spreading on PLYS minus spreading on CNS myelin; for Effect on C6 cell spreading on CNS myelin, in words: Section 9
Description: Rat C6, mouse NIH 3T3 and B16 cells were cultured in Dulbecco's modified Eagle's medium (DMEM) supplemented with 10% fetal calf serum (FCS), usually to maximally 70-80% confluency. Cells were harvested with a short trypsin treatment (0.1% in Ca^2+/Mg^2+-free Hank's medium for 90 seconds) stopped by addition of FCS in excess, collected by centrifugation. Cells were resuspended in either DMEM/FCS or defined serum-free medium (MEM) and used for experiments. Dissociated rat CNS glial cells were prepared starting from optic nerves of 6-7 days old Lewis rats as described in Section 6.1.1, supra and plated into poly-D-lysine (PLYS) coated wells (100 mm^2, 100 μl medium) at a density of 20,000 cells per well. The culture medium was an enriched L15 medium with 5% rat serum, penicillin and streptomycin. C6, 3T3 and B16 cells were added to 2 day old cultures at a concentration of 30,000 cells per well, incubated for two hours and fixed with warm 4% formalin in phosphate buffer. Inhibitory oligodendrocytes were identified by double labelling using the specific antibodies O1 and O4 (see Section 6.1.3, supra).
Myelin from rat spinal cord (CNS) or sciatic nerve (PNS) purified on a discontinuous sucrose gradient as described in Section 6.1.5., was dried overnight onto PLYS coated wells (20 μg protein/well of 100 mm^2 surface). Unbound membranes were removed by three washes with Ca^2+/Mg^2+-free Hank's solution. Myelin coated wells were immediately used in substrate testing assays by the addition of 9,000 cells (C6, 3T3, or B16) per cm^2. Alternatively, we used extracted CNS myelin protein, or SDS-PAGE purified 35 and 250 kD inhibitory proteins reconstituted in liposomes (see Section 7.1.5, supra). Experiments were scored at different time points using a phase contrast microscope equipped with a photocamera. Quantifications were done using a surface integration program; three arbitrary fields were photographed for each well at a magnitude of 80×, at least 25 cells per picture were measured. Each point represents the mean of at least 3 wells±SEM. Results are expressed as μ^2 of projected cell surface, or as degree, which was calculated by subtracting from the projected surface value of a spreading cell, the surface value of a completely spheric cell.

[4] = test system: cbz-FAF[^125I]Y-NH2; test: Degradation of cbz-FAF[125I]Y-NH2 by defined proteases and C6 cell fractions; format: biochemical
Description: Preparation of plasma membrane from C6 cells was performed according to (Raper and Kapfhammer, 1990, Neuron 2:21-29) with some modifications. Briefly, C6 cells were cultured in 30 culture dishes (13.5 cm diameter). At confluency, the culture medium was removed and the cell layers were frozen to −20° C. All subsequent manipulations were performed at 4° C.: cell debris were collected using a rubber policeman in 100 ml CMF-Hank's and further homogenized by 10 strokes in a Dounce homogenizer with teflon plunger. A small aliquot of this suspension was stored at −20° C. and used later (homogenate-fraction). The nuclear pellet was obtained by low speed centrifugation (10 min, 1000×g) in a Sorvall S22 rotor and stored at […] A crude vesicular fraction was obtained by centrifugating the nuclear supernatant in a Sorvall S22 rotor (20,000×g, 30 min), and was resuspended in 10 ml CMF-Hank's. After adding 20 ml 2.25 M sucrose in CMF-Hank's, this suspension was loaded on 4×8 ml 2.25 M sucrose in CMF-Hank's and centrifuged at 80,000×g for 1 h in a Beckman SW28 motor. Plasma membranes were harvested at the top and the mitochondrial fraction at the interphase of this 2 step gradient. Both fractions were diluted 10× with CMF-Hank's and pelleted (Beckman TI80, 22,000×g, 30 min). The two pellets were resuspended in 2 ml MEMα (1.3 mg protein/ml) supplemented with 0.5 mM DTT and stored at −20° C.
For most experiments, 70-80% confluent cell layers (1 cm^2 wells, 100 μl MEMα) or 2-5 μg C6 plasma membrane (100 μl MEMα) were used. Reactions were started by the addition of 10 μl cbz-FAF[^125I]Y-NH2 (SEQ ID NO:2) (2 μM in MEMα, 10,000-30,000 cpm). If indicated, cell layers or plasma membrane suspensions were preincubated for 30 min with protease blockers or peptides. NEM or iodacetamide incubations of plasma membranes were performed at pH 8.5. The incubation was stopped by loading a 10 μl aliquot of the incubation medium on a thin layer chromatography plate (10 cm height, Kieselgel 60 F254, MERCK, Germany) and air dried. Thin layer chromatography was routinely run with CHCl3:CH3OH:CH3COOH 32% (5:3:1). Plates were then air dried and exposed on Kodak X-OMAT films (NY, USA) with an intensifying screen. To identify the degradation products on thin-layer chromatography, we run reference peptides under the same conditions.
For the quantification of the activity, the reaction was stopped by addition of an equal volume of chloroform. This simple procedure allowed us to separate an organic phase containing the unreacted substrate cbz-FAF[^125I]Y-NH2 and an aqueous phase containing the charged degradation products (see also FIG. 30). Activity is expressed as % radioactivity contained in the aqueous phase. 100% is the sum of the radioactivity of both phases.

[5] = C6 cell spreading on CNS myelin, read-out: IC50 on CNS myelin

pIC50 [2]: 5.52
Compound: C[C@H](NC(=O)[C@H](Cc1ccccc1)NC(=O)OCc1ccccc1)C(=O)N[C@@H](Cc1ccccc1)C(=O)N[C@@H](Cc1ccc(O)cc1)C(N)=O [cbz-FAFY-NH2, carbobenzoxy-Phe-Ala-Phe-Tyr-amide] (Cbz-FAFY-NH2)
Effect on C6 cell spreading on CNS myelin, in words ([2]; Section 11): clearly impaired C6 cell spreading on CNS myelin
Effect on C6 cell spreading on PLYS-coated wells, in words ([2]; Section 11): had no effect on PLYS-coated wells

pIC50 [2]: 5.30
Compound: COC(=O)[C@H](Cc1ccccc1)NC(=O)[C@H](Cc1ccccc1)NC(=O)CNC(=O)OCc1ccccc1 [cbz-GFF-OCH3] (Cbz-Gly-Phe-Phe-OMe)
Effect on C6 cell spreading on CNS myelin, in words ([2]; Section 11): strong inhibition of cell spreading

pIC50 [2]: 3.52
Compound: O=C(CNC(=O)OCc1ccccc1)N[C@@H](Cc1ccccc1)C(=O)N[C@@H](Cc1ccccc1)C(=O)O [cbz-GFF] (Cbz-Gly-Phe-Phe-OH; C-terminus assumed)

pIC50 [2]: 5.30
Compound: CC(C)C[C@H](NC(=O)CNC(=O)OCc1ccccc1)C(=O)N[C@@H](Cc1ccccc1)C(N)=O [cbz-GLF-NH2] (Cbz-Gly-Leu-Phe-NH2)

Effect on cbz-FAF[^125I]Y-NH2 degradation by C6 plasma membranes, in words [1]: had no effect
Compound: CC(C)C[C@H](NP(=O)(O)O[C@@H]1O[C@@H](C)[C@H](O)[C@@H](O)[C@H]1O)C(=O)N[C@@H](Cc1c[nH]c2ccccc12)C(=O)O [phosphoramidon]
Inhibition on CNS (%) [3]: 9%
Effect on C6 cell spreading on CNS myelin, in words [3]: did not impair C6 cell spreading

Effect on cbz-FAF[^125I]Y-NH2 degradation by C6 plasma membranes, in words [1]: had no effect
Compound: Carboxymethyl-phe-leu [cm-phe-leu]
Inhibition on CNS (%) [3]: 3%
Effect on C6 cell spreading on CNS myelin, in words [3]: did not inhibit C6 cell spreading

The remaining lines, values behind:

Compound: C[C@H](CS)C(=O)N1CCC[C@H]1C(=O)O [Captopril]
Effect on cbz-FAF[^125I]Y-NH2 degradation by C6 plasma membranes, in words [1]: had no effect

Compound: C[C@H](NC(=O)[C@@H](N)Cc1ccccc1)C(=O)N[C@@H](Cc1ccccc1)C(=O)N[C@@H](Cc1ccc(O)cc1)C(N)=O [FAFY-NH2] (H-FAFY-NH2; N-terminus assumed)
pIC50 [2, 5]: 3.52

Compound: CCN1C(=O)C=CC1=O [N-ethylmaleimide]
Effect on cbz-FAF[^125I]Y-NH2 degradation by C6 plasma membranes, in words [1]: had no effect

Compound: O=S(=O)(F)Cc1ccccc1 [PMSF, Phenyl methyl sulfonyl fluoride]
Effect on cbz-FAF[^125I]Y-NH2 degradation by C6 plasma membranes, in words [1]: had no effect
Inhibition on CNS (%) [3]: 6%

Compound: CC(C)C[C@H](NC(=O)[C@@H](O)[C@H](N)Cc1ccccc1)C(=O)O [bestatine]
Effect on cbz-FAF[^125I]Y-NH2 degradation by C6 plasma membranes, in words [1]: did not affect overall activity
Effect on formation of Y-NH2 from cbz-FAF[^125I]Y-NH2, in words [1]: specifically inhibited the formation of Y-NH2
Inhibition on CNS (%) [3]: 0%
Effect on C6 cell spreading on CNS myelin, in words [3]: did not impair C6 cell spreading

Compound: C[C@H](NC(=O)OCc1ccccc1)C(=O)N[C@@H](Cc1ccccc1)C(N)=O [cbz-AF-NH2, carbobenzoxy-alanine-phenylalanine-amide]
pIC50 [2, 5]: 3.22

Compound: C[C@H](NC(=O)OCc1ccccc1)C(=O)N[C@@H](Cc1ccccc1)C(=O)N[C@@H](Cc1ccc(O)cc1)C(N)=O [cbz-AFY-NH2]
Effect on C6 cell spreading on CNS myelin, in words ([2]; Section 11): strong inhibition of cell spreading

Compound: C[C@H](NC(=O)[C@H](Cc1ccccc1)NC(=O)OCc1ccccc1)C(N)=O [cbz-FA-NH2]
pIC50 [2, 5]: 3.22

Compound: NC(=O)CI [iodacetamide]
Effect on cbz-FAF[^125I]Y-NH2 degradation by C6 plasma membranes, in words [1]: had no effect

Compound: cathepsin D: acidic protease
Amount necessary to degrade 50% of substrate in 30 min ([4]; 37° C., pH 7.4): >100 µg
Amount giving half maximal activity on cbz-FAFY-NH2 ([4]; pH 4.0): 5 ng
Amount necessary to degrade 50% of substrate in 30 min ([4]; pH 4.0): 0.005 µg

Compound: collagenase
Amount necessary to degrade 50% of substrate in 30 min ([4]; 37° C., pH 7.4): 3 µg and 3.0 µg

Compound: trypsin
Amount necessary to degrade 50% of substrate in 30 min ([4]; 37° C., pH 7.4): 0.3 µg
